Legend:
[1] = test system: Pyricularia oryzae Carvara KA301; assay: whole plant or invertebrate; type: in vivo; conditions: Pyricularia oryzae, read-out: RCB control value (C.V.)
Botrytis cinerae = assay: Fungicidal activity against cucumber gray mold rot (CGM) disease, control value; type: in vivo; conditions: Botrytis, read-out: CGM control value (C.V.)
Phytophthora infestans = assay: whole plant or invertebrate; type: in vivo; conditions: Phytophthora infestans, in Solanum lycopersicum, read-out: TLB control value (C.V.)
Puccinia recondita = assay: Fungicidal activity against wheat leaf rust (WLR) disease, control value; type: in vivo; conditions: Puccinia recondita, read-out: WLR control value (C.V.)
Erysiphae graminis = assay: Fungicidal activity against barley powdery mildew (BPM) disease, control value; type: in vivo; conditions: 168 h, read-out: BPM control value (C.V.)
Rhizoctonia solani AG-1 = assay: Fungicidal activity against rice sheath blight (RSB) disease, control value; conditions: Rhizoctonia solani, AG1, in Oryza sativa, read-out: RSB control value (C.V.)

Structure (SMILES)	pest or weed control at 2 ppm [1] [%]	pest or weed control at 10 ppm [1] [%]	pest or weed control at 50 ppm [1] [%]	pest or weed control at 100 ppm [1] [%]	pest or weed control at 100 ppm (Botrytis cinerae) [%]	pest or weed control at 2 ppm (Phytophthora infestans) [%]	pest or weed control at 10 ppm (Phytophthora infestans) [%]	pest or weed control at 50 ppm (Phytophthora infestans) [%]	pest or weed control at 100 ppm (Phytophthora infestans) [%]	pest or weed control at 2 ppm (Puccinia recondita) [%]	pest or weed control at 10 ppm (Puccinia recondita) [%]	pest or weed control at 50 ppm (Puccinia recondita) [%]	pest or weed control at 100 ppm (Puccinia recondita) [%]	pest or weed control at 2 ppm (Erysiphae graminis) [%]	pest or weed control at 10 ppm (Erysiphae graminis) [%]	pest or weed control at 50 ppm (Erysiphae graminis) [%]	pest or weed control at 100 ppm (Erysiphae graminis) [%]	pest or weed control at 2 ppm (Rhizoctonia solani AG-1) [%]	pest or weed control at 10 ppm (Rhizoctonia solani AG-1) [%]	pest or weed control at 50 ppm (Rhizoctonia solani AG-1) [%]	also measured
CNC(=O)/C(=N/OC)c1ccccc1COc1ccc(F)cc1C=C(Cl)Cl [Example 56, (E)-2-(2-((2-(2,2-dichlorovinyl)-4-fluorophenoxy)methyl)phenyl)-2-methoxyimino-N-methylacetamide]	97	100	100	100	65	95	100	100	100	100	100	100	100	100	100	100	100	95	100	100	pest or weed control at 50 ppm (Botrytis cinerae): 20%; pest or weed control at 100 ppm (Rhizoctonia solani AG-1): 100%
CO/N=C(/C(=O)OC)c1ccccc1COc1ccc(C=C(Cl)Cl)c(Cl)c1 [Example 57, methyl-(E)-2-(2-((3-chloro-4-(2,2-dichlorovinyl)phenoxy)methyl)phenyl)-2-methoxyiminoacetate]	90	100	100	100	75	99	100	100	100	95	100	100	100	100	100	100	100	90	100	100	pest or weed control at 50 ppm (Botrytis cinerae): 20%; pest or weed control at 100 ppm (Rhizoctonia solani AG-1): 100%
CNC(=O)/C(=N/OC)c1ccccc1COc1ccc(C=C(Cl)Cl)c(Cl)c1 [Example 58, (E)-2-(2-((3-chloro-4-(2,2-dichlorovinyl)phenoxy)methyl)phenyl)-2-methoxyimino-N-methylacetamide]	100	100	100	100	35	99	100	100	100	100	100	100	100	100	100	100	100	90	100	100	pest or weed control at 100 ppm (Rhizoctonia solani AG-1): 100%
CCOc1cc(C=C(Cl)Cl)ccc1OCc1ccccc1/C(=N\OC)C(=O)OC [Example 59, methyl-(E)-2-(2-((4-(2,2-dichlorovinyl)-2-ethoxyphenoxy)methyl)phenyl)-2-methoxyiminoacetate]	97	100	100	100	65	98	100	100	100	90	100	100	100	98	100	100	100	98	100	100	pest or weed control at 100 ppm (Rhizoctonia solani AG-1): 100%
